Measurements reported in patent publication US10100335B2, “Microbial production of branched medium chain alcohols, such as 4-methylpentanol” (Massachusetts Institute of Technology, priority 2013, dated 2018).
≈ marks a conversion by molar mass, not a printed value.

Key:
[1] = cited from earlier work
[2] = system: MG1655(DE3) endA recA; experiment: Toxicity of exogenously added alcohols on exponential growth rate; type: cell-based, E. coli; conditions: for reduction in growth rate: 10 mM alcohol in LB medium with 1.2% glucose
Protocol: The exponential growth rate was unchanged by 4-methyl-1-pentanol concentrations exceeding those observed in final titers (193±23 mg/L) for the high producing Strain M1Fj(IA)2I34. The highest 4-methyl-1-pentanol concentration (10 mM, 1022 mg/L) did lead to a reduction in growth rate of 40%. […] If higher titers of 4-methyl-1-pentanol are achieved, in situ gas stripping or simple phase separation could potentially be used to extract 4-methyl-1-pentanol from the culture medium (Lee 1994).
Duplicate 3 ml cultures in LB+1.2% glucose+alcohol were inoculated to an initial OD600 of 0.1. Cultures were contained in the same 50 ml screw-cap tubes used in production experiments. […] Growth was monitored by optical density and the growth rate was calculated from a linear regression of the natural log of the OD600 values for the 1.5, 2, and 2.5 hour post-inoculation time points.

[3] = molecular target: T1, CarNi (Nocardia iowensis carboxylic acid reductase) (Nocardia iowensis, UniProt Q6RKB1); type: biochemical; conditions: for CarNi activity on aliphatic acid substrate: 13 straight and branched acids from C2-C8; for observed CarNi activity relative to activity on 4-methyl-valerate: in vitro, his-purified CarNi, 50 mM acid substrate
T1 construct: made in house; host or cells: E. coli BL21 Star (DE3) harboring pET/His-Car-RBS2-Sfp
Protocol: Strain M4 expressing car-sfp-ADH6 was fed five different acids at 10 mM initial concentration. Selectivity was determined by measuring normalized titers 5 hours post induction of gene expression. […] Initial rates were measured by monitoring NADPH consumption by measuring absorption at 340 nm.
Assays were devised to confirm activity on desired substrates in vitro and in vivo. In the first, N-terminal his-tagged CarNi was purified and assayed by UV absorption of NADPH with 13 straight and branched acids from C2-C8. […] A complementary in vivo assay was designed to examine the effectiveness of the Module 4 pairing. Butyrate, valerate. 3-methyl-valerate, 4-methyl-valerate, and hexanoate were fed to E. coli cultures expressing CarNi/ADH6Sc and conversion was monitored by sampling the culture media and liquid chromatography (LC).
Relative Activity Assay for Purified his-Car: An overnight culture of BL21 Star (DE3) (Invitrogen) harboring pET/His-Car-RBS2-Sfp was used as 10% (v/v) inoculum in 2 L of LB Broth. The culture was incubated at 30° C. and 250 rpm, and expression was induced using a final concentration of 1 mM IPTG at OD 0.6. Cells were harvested after 20 hours using centrifugation and resuspended in a buffer containing 50 mM Tris-HCl pH 8.0, 300 mM NaCl, and 10% glycerol. Cells were subsequently lysed using sonication. The supernatant was collected and applied to a column containing Ni-NTA resin (Qiagen). Affinity chromatography was performed using step-wise increasing concentrations of imidazole. Fractions containing purified His6-Car were dialyzed overnight at 4° C. into 50 mM Tris-HCl pH 7.5, 50 mM NaCl, 1 mM DTT, and 10% glycerol. Dialyzed enzyme was then flash frozen using liquid nitrogen and stored at −80° C. The activity of His-Car on various substrates was determined by changes in absorbance at 340 nm for up to 5 minutes in 96-well microplates using a plate reader (Tecan Infinite F200 Pro). Reactions were prepared as follows: 100 mM Tris-HCl pH 7.5, 10 mM MgCl2, 0.6 mM NADPH, 1 mM ATP, 224 nM His-Car, and 50 mM pH neutralized acid substrate. Changes in absorbance at 340 nm were detected using a filter. All substrates were assayed in triplicate. For KM and Vmax determinations, substrates were assayed at 5 different concentrations.

T1 sequence (Q6RKB1 whole entry): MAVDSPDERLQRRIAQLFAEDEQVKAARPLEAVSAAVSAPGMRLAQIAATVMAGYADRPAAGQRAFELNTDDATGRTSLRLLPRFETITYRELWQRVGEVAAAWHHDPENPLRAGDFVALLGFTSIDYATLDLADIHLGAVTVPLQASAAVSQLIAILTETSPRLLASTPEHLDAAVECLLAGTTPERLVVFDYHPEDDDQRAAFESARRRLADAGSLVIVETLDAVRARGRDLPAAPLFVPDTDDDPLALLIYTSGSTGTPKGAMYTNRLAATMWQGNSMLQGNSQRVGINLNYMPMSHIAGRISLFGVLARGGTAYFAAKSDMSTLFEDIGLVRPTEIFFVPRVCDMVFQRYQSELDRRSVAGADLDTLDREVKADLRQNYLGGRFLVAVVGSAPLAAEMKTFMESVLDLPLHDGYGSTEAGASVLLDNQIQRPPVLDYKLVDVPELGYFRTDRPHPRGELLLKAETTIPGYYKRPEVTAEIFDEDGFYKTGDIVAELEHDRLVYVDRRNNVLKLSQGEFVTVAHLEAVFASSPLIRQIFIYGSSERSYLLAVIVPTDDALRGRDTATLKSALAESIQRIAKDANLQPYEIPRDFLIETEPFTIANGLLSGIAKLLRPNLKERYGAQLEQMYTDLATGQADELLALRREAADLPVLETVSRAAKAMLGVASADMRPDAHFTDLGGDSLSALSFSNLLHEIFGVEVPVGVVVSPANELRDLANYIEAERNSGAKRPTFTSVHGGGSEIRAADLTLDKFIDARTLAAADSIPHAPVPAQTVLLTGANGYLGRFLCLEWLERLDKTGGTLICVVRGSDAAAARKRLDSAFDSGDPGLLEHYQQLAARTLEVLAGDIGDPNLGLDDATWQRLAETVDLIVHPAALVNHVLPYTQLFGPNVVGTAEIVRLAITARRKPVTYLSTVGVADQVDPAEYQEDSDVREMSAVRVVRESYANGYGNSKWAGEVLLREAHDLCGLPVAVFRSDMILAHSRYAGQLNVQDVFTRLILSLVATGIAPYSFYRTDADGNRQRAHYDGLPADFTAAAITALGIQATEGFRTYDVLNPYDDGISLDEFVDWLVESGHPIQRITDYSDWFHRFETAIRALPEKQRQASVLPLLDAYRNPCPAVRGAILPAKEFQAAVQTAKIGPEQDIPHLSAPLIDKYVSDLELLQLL

SMILES	reduction in growth rate [2]	effect on exponential growth rate ([2]; concentrations up to 5 mM)	CarNi activity on aliphatic acid substrate [3]	observed CarNi activity relative to activity on 4-methyl-valerate [3]	other results
CC(C)CCCO [4-methyl-1-pentanol]	40%	did not inhibit	–	–	solubility in water [1]: 7400 µg/mL (≈ 72.4 mM); effect on exponential growth rate ([2]; concentrations exceeding those observed in final titers (193±23 mg/L)): unchanged
CCC(C)CCC(=O)O (stereo not drawn) [4-methyl-hexanoate]	–	–	highest activity	–	–
CC(=O)O [acetate]	–	–	reduced activity	–	–
CCCC(=O)O [butyrate]	–	–	–	56%	–
CC(C)CO [isobutanol]	10%	did not inhibit	–	–	–
CC(C)C(=O)O [isobutyrate]	–	–	reduced activity	25%	Km ([3]; purified His-CarNi, initial rates by NADPH consumption at 340 nm): 78 ± 9 mM
